Patent publication US20140322139A1, “STABILIZATION OF X-RAY DIAGNOSTIC COMPOSITION” (GE HEALTHCARE AS, priority 2011, published 2014)

Key:
[1] = Physical stability study: visual inspection for crystallisation during storage; type: physicochemical; settings: conclusion from the storage study of Ioforminol/Visipaque mixtures
Protocol: Formulated Ioforminol (320 mg I/ml) and Visipaque (Iodixanol 320 mg I/ml) were filled on 100 ml glass vials in mixtures with ratios according to Table 1. The filling was performed by using a Flexicon PF5 peristaltic pump. The vials were sealed by closures comprising stoppers and overlying caps. The vials were split into two populations, one that was subjected to heat steam sterilisation at 121° C. (autoclaving) for 20 minutes and one that was used without further treatment.
The autoclaved and non-autoclaved samples of different mixtures were placed on storage at 25, 40 and 60° C. respectively. The samples were subjected to visual inspection weekly for the first 5 weeks before inspection was carried out monthly.

[2] = Dissolution temperature of ioforminol in water for injection; type: physicochemical; settings: water for injection as the solvent, concentration range 270-380 mg I/ml

## CC(=O)N(CC(O)CN(C(C)=O)c1c(I)c(C(=O)NCC(O)CO)c(I)c(C(=O)NCC(O)CO)c1I)c1c(I)c(C(=O)NCC(O)CO)c(I)c(C(=O)NCC(O)CO)c1I (centres unmarked) [Iodixanol]
[1]
  inhibition of primary nucleation: potent inhibitor of primary nucleation

## O=CN(CC(O)CN(C=O)c1c(I)c(C(=O)NCC(O)CO)c(I)c(C(=O)NCC(O)CO)c1I)c1c(I)c(C(=O)NCC(O)CO)c(I)c(C(=O)NCC(O)CO)c1I (centres unmarked) [Ioforminol, 5-[formyl-[3-[formyl-[3,5-bis(2,3-dihydroxypropylcarbamoyl)-2,4,6-triiodophenyl]amino]-2-hydroxypropyl]amino]-N,N′-bis(2,3-dihydroxypropyl)-2,4,6-triiodobenzene-1,3-dicarboxamide]
[2]
  dissolution temperature: ~110 °C
